The subject of test [1] is Plasmodium falciparum 3D7. The test can be described thus: P. falciparum growth inhibition assay (Pf-LDH). It counts as cell-based. The conditions noted are these: Plasmodium falciparum, Erythrocyte; P. falciparum 3D7 infected erythrocytes, 72 h incubation, PfLDH readout. In a few lines:
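P. falciparum 3D7 (chloroquine-sensitive) at 0.25% parasitemia and 2% hematocrit was incubated with compound for 72 h at 37° C under 4% CO2/3% O2/93% N2. After freeze-thaw, PfLDH activity was read at 650 nm with lactate/APAD/NBT/diaphorase mix (pH 8.0).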

A further test has as its target T1, human HDAC1 (Homo sapiens, UniProt Q13547).
T1 construct: made in house; host or cells: HeLa (ATCC CCL-2), mammalian cells
The test can be described thus: Homo sapiens HDAC1 inhibition assay (Fluor-de-Lys, enzymatic). It counts as biochemical. The conditions noted are these: human HDAC enzymatic assay; read-out: hHDAC IC50. In a few lines: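 Product developed with trypsin developer containing 2 μM TSA to stop the reaction; fluorescence measures deacetylase activity, inversely related to inhibition.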

T1 sequence (Q13547 whole entry): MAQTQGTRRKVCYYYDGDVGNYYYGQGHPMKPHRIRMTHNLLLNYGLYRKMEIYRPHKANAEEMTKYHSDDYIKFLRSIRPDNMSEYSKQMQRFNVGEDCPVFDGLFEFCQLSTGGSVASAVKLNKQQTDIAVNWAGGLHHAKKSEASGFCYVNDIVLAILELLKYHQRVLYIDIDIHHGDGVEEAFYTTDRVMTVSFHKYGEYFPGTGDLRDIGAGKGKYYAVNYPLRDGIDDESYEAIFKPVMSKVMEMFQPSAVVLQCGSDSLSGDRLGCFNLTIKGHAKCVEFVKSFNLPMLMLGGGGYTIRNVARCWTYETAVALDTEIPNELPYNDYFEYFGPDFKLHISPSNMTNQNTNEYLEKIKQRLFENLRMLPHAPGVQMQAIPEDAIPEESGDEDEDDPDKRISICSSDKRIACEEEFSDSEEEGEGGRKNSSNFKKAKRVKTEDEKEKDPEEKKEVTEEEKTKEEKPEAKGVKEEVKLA

A word on the EC50: it is the concentration giving half of the maximal effect. A higher EC50 goes with weaker potency. Usually IC50 stands for the concentration that gives 50% inhibition. In the case of `CNC(=O)CCCCC[C@H](NC(=O)C12CCN(CC1)CC2)c1ncc(-c2ccc3cc(F)ccc3c2)[nH]1` [Entry 154, (S)-N-(1-(5-(6-fluoronaphthalen-2-yl)-1H-imidazol-2-yl)-7-(methylamino)-7-oxo-heptyl)quinuclidine-4-carboxamide], the EC50 in test [1] is below 1 µM. Also, the IC50 on human HDAC1 is below 1 µM.

In test [1], `CNC(=O)CCCCC[C@H](NC(=O)CC1=CSC2=NCCCN12)c1ncc(-c2ccc3ccncc3c2)[nH]1` [Entry 155, (S)-7-(2-(6,7-dihydro-5H-thiazolo[3,2-a]pyrimidin-3-yl)acetamido)-7-(5-(isoquinolin-7-yl)-1H-imidazol-2-yl)-N-methyl-heptanamide] returned an EC50 of 1 to 5 µM. In addition, the IC50 on human HDAC1 lay in the range of 1 to 5 µM.

In test [1], `CNC(=O)CCCCC[C@H](NC(=O)c1cccc(-n2cccn2)c1)c1ncc(-c2cc3ccccc3nc2OC)[nH]1` [Entry 156, (S)-N-(1-(5-(2-methoxyquinolin-3-yl)-1H-imidazol-2-yl)-7-(methylamino)-7-oxoheptyl)-3-(1H-pyrazol-1-yl)benzamide] gave an EC50 of 1 to 5 µM. Also, the IC50 on human HDAC1 is above 5 µM.

`CNC(=O)CCCCC[C@H](NC(=O)Cn1ccnn1)c1ncc(-c2ccc3[nH]ncc3c2)[nH]1` [Entry 157, (S)-7-(2-(1H-1,2,3-triazol-1-yl)acetamido)-7-(5-(1H-indazol-5-yl)-1H-imidazol-2-yl)-N-methyl-heptanamide] registered an EC50 in test [1] above 5 µM. In addition, at human HDAC1, the IC50 was above 5 µM.

In the case of `CNC(=O)CCCCC[C@H](NC(=O)c1cncs1)c1ncc(-c2ccc(-c3ccn(C)n3)cc2)[nH]1` [Entry 158], the EC50 in test [1] is below 1 µM. Moreover, the IC50 at human HDAC1 lay within 1 to 5 µM.

As to `CNC(=O)CCCCC[C@H](NC(=O)c1cncs1)c1ncc(-c2cnc3[nH]ncc3c2)[nH]1` [Entry 159, (S)-N-(1-(5-(1H-pyrazolo[3,4-b]pyridin-5-yl)-1H-imidazol-2-yl)-7-(methylamino)-7-oxoheptyl)thiazole-5-carboxamide], the EC50 in test [1] was above 5 µM. Moreover, the IC50 on human HDAC1 was above 5 µM.

`CNC(=O)CCCCC[C@H](NC(=O)c1cncs1)c1ncc(-c2ccc3[nH]ncc3c2)[nH]1` [Entry 160, (S)-N-(1-(5-(1H-indazol-5-yl)-1H-imidazol-2-yl)-7-(methylamino)-7-oxoheptyl)thiazole-5-carboxamide] showed an EC50 in test [1] below 1 µM. The IC50 at human HDAC1 fell in the range of 1 to 5 µM.

`CNC(=O)CCCCC[C@H](NC(=O)c1cncs1)c1ncc(-c2ccc3sccc3c2)[nH]1` [Entry 161, (S)-N-(1-(5-(benzo[b]thiophen-5-yl)-1H-imidazol-2-yl)-7-(methylamino)-7-oxoheptyl)thiazole-5-carboxamide]: in test [1], the EC50 fell in the range of 1 to 5 µM. In addition, at human HDAC1, the IC50 lay in the range of 1 to 5 µM.

Molecule `CNC(=O)CCCCC[C@H](NC(=O)C1CCN(C)CC1)c1ncc(-c2ccc(-n3cccn3)cc2)[nH]1` [Entry 162] showed an EC50 in test [1] above 5 µM. In addition, the IC50 at human HDAC1 was above 5 µM.

Consider `CNC(=O)CCCCC[C@H](NC(=O)Cc1cnc2ccccn12)c1ncc(-c2ccc(-n3cccn3)cc2)[nH]1` [Entry 163, (S)-7-(5-(4-(1H-pyrazol-1-yl)phenyl)-1H-imidazol-2-yl)-7-(2-(imidazo[1,2-a]pyridin-3-yl)acetamido)-N-methylheptanamide], for which the EC50 in test [1] was in the range of 1 to 5 µM. For the same molecule, on human HDAC1, the IC50 was 1 to 5 µM.

For `CNC(=O)CCCCC[C@H](NC(=O)c1cn2ccsc2n1)c1ncc(-c2ccc3ccccc3c2)[nH]1` [Entry 164, (S)-N-(7-(methylamino)-1-(5-(naphthalen-2-yl)-1H-imidazol-2-yl)-7-oxo-heptyl)imidazo[2,1-b]thiazole-6-carboxamide], the EC50 in test [1] is above 5 µM. The IC50 on human HDAC1 is above 5 µM.

On to `CNC(=O)CCCCC[C@H](NC(=O)CN1CCN(C)CC1)c1ncc(-c2ccc3ccccc3c2)[nH]1` [Entry 165, (S)-N-methyl-7-(2-(4-methylpiperazin-1-yl)acetamido)-7-(5-(naphthalen-2-yl)-1H-imidazol-2-yl)heptanamide], for which the EC50 in test [1] is above 5 µM. The IC50 at human HDAC1 was 1 to 5 µM.

On to `CNC(=O)CCCCC[C@H](NC(=O)C1CNC(=O)C1)c1ncc(-c2ccc3ccccc3c2)[nH]1` (stereo partly drawn) [Entry 166, N-((S)-7-(methylamino)-1-(5-(naphthalen-2-yl)-1H-imidazol-2-yl)-7-oxoheptyl)-5-oxopyrrolidine-3-carboxamide], for which the EC50 in test [1] fell in the range of 1 to 5 µM. At human HDAC1, the IC50 was 1 to 5 µM.

For `CNC(=O)CCCCC[C@H](NC(=O)CCc1nnc(C)[nH]1)c1ncc(-c2ccc3ccncc3c2)[nH]1` [Entry 167], the EC50 in test [1] was 1 to 5 µM. Besides, at human HDAC1, the IC50 was in the range of 1 to 5 µM.

`CNC(=O)CCCCC[C@H](NC(=O)Cc1cn2ccsc2n1)c1ncc(-c2ccc3ccncc3c2)[nH]1` [Entry 168, (S)-7-(2-(imidazo[2,1-b]thiazol-6-yl)acetamido)-7-(5-(isoquinolin-7-yl)-1H-imidazol-2-yl)-N-methyl-heptanamide] gave an EC50 in test [1] of 1 to 5 µM. At human HDAC1, the IC50 is 1 to 5 µM.

Consider `CNC(=O)CCCCC[C@H](NC(=O)Cn1cc2ccccc2n1)c1ncc(-c2ccc(-c3ccn(C)n3)cc2)[nH]1` [Entry 169, (S)-7-(2-(2H-indazol-2-yl)acetamido)-N-methyl-7-(5-(4-(1-methyl-1H-pyrazol-3-yl)phenyl)-1H-imidazol-2-yl)heptanamide], for which, in test [1], the EC50 lay within 1 to 5 µM. On human HDAC1, the IC50 was below 1 µM.

In test [1], `CNC(=O)CCCCC[C@H](NC(=O)C1CC1c1ccncc1)c1ncc(-c2ccc(-c3ccn(C)n3)cc2)[nH]1` (stereo partly drawn) [Entry 170, N-((S)-1-(5-(4-(1-methyl-1H-pyrazol-3-yl)phenyl)-1H-imidazol-2-yl)-7-(methylamino)-7-oxoheptyl)-2-(pyridin-4-yl)cyclopropane-carboxamide] returned an EC50 of 1 to 5 µM. Further, at human HDAC1, the IC50 was 1 to 5 µM.

As to `CNC(=O)CCCCC[C@H](NC(=O)Cn1ccc(C)n1)c1ncc(-c2ccc(-c3ccn(C)n3)cc2)[nH]1` [Entry 171, (S)-N-methyl-7-(2-(3-methyl-1H-pyrazol-1-yl)acetamido)-7-(5-(4-(1-methyl-1H-pyrazol-3-yl)phenyl)-1H-imidazol-2-yl)heptanamide], the EC50 in test [1] was above 5 µM. Moreover, the IC50 on human HDAC1 was above 5 µM.

Molecule `CNC(=O)CCCCC[C@H](NC(=O)c1cncs1)c1ncc(-c2ccc(-n3cccn3)cc2)[nH]1` [Entry 172, (S)-N-(1-(5-(4-(1H-pyrazol-1-yl)phenyl)-1H-imidazol-2-yl)-7-(methylamino)-7-oxoheptyl)thiazole-5-carboxamide] had an EC50 in test [1] below 1 µM. Besides, at human HDAC1, the IC50 was in the range of 1 to 5 µM.

Molecule `CNC(=O)CCCCC[C@H](NC(=O)c1cncs1)c1ncc(-c2ccc3cc[nH]c3c2)[nH]1` [Entry 173, (S)-N-(1-(5-(1H-indol-6-yl)-1H-imidazol-2-yl)-7-(methylamino)-7-oxoheptyl)thiazole-5-carboxamide] came in with an EC50 in test [1] of 1 to 5 µM. In addition, on human HDAC1, the IC50 fell in the range of 1 to 5 µM.

The molecule `COc1ccc2[nH]c(C)c(CC(=O)N[C@@H](CCCCCC(N)=O)c3nnc(-c4ccc5ccccc5c4)o3)c2c1` [Entry 174, (S)-7-(2-(5-methoxy-2-methyl-1H-indol-3-yl)acetamido)-7-(5-(naphthalen-2-yl)-1,3,4-oxadiazol-2-yl)heptanamide] had an EC50 in test [1] of 1 to 5 µM. In addition, the IC50 at human HDAC1 was below 1 µM.
